The target in experiment [1] is human somatostatin receptors subtype 2 (Homo sapiens, UniProt P30874). The note with it: cited from earlier work.
The test system of experiment [2] is MCF-7 cells. Description: Cell death of MCF-7 cells after 1 day treatment. The note with it: 10^−5 M. In kind it is cell-based.
Experiment [3] concerns CHO cells. The experiment can be described thus: Cell death of CHO cells after 1 day treatment. The format is cell-based. Particulars: 10^−5 M.
The target in experiment [4] is human somatostatin receptors subtype 4 (Homo sapiens, UniProt P31391). The note with it: cited from earlier work.
Sequence of human somatostatin receptors subtype 4 (P31391 whole entry): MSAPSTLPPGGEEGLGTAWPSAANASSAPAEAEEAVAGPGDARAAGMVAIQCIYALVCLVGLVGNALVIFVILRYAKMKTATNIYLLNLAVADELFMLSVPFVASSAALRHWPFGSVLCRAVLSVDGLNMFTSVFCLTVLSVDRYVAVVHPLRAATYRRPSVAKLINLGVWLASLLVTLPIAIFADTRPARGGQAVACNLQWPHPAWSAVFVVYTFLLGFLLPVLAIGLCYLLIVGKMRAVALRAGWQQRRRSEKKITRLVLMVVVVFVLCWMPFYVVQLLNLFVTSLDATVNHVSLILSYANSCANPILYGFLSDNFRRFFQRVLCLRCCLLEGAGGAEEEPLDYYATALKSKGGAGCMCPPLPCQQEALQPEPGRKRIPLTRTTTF
For experiment [5], the system named is MCF-7 cells. The experiment can be described thus: Fluorescence microscopy binding of fluorescein-labeled octreotide to MCF-7 cells. Particulars: 30 min, 4° C.; for binding (fluorescence labeling) to MCF-7 cells: 100 μg in 1 ml buffer.
Method: Panels B, D, F and H which correspond to panels A, C, E and G, respectively, show the fluorescence labeled octreotide binding to the MCF-7 cells and the CHO. The MCF-7 cells and CHO cells are inclubated with 100 μg of fluorescein labeled octerotide in 1 ml of a buffer for 30 minutes at 4 ° C., after which the cells are washed with PBS, fixed with 4% paraformaldehye and subject to fluorescence microscopy.
Experiment [6] concerns MCF-7 cells. Description: Internalization of labeled octreotide by MCF-7 cells (somatostatin receptor-mediated endocytosis). The format is cell-based. Particulars: one hour incubation, 100 μg/ml, 37° C.
Experiment [7] concerns CHO cells. The note with it: 30 min, 4° C.; for binding (fluorescence labeling) to CHO cells: 100 μg in 1 ml buffer; for binding to CHO cells at higher concentration of labeled octreotide: higher concentration (500 μg/ml). Here is the method: FIG. 2 depicts fluorescence micrographs of MCF-7 and CHO cells after incubation with fluorescin-octreotide at 4° C. for 30 min. […] Cell morphology was shown at A, C, E, and G. Bar=20 μm;
The MCF-7 cells and CHO cells are inclubated with 100 μg of fluorescein labeled octerotide in 1 ml of a buffer for 30 minutes at 4 ° C., after which the cells are washed with PBS, fixed with 4% paraformaldehye and subject to fluorescence microscopy.

Experiment [8] concerns MCF-7 cells. Particulars: paclitaxel at 10^−6 M, 1 day.
Where [9] appears, read: listed as fluorescin-octreotide.

Where two headings read alike, the source gives them in different places. Where a SMILES comes first, the peptide text is derived from it. Bridges are numbered along the chain shown (N, C = ends). [ ]: non-standard residue; d: D form.

Sequence of human somatostatin receptors subtype 2 (P30874 whole entry): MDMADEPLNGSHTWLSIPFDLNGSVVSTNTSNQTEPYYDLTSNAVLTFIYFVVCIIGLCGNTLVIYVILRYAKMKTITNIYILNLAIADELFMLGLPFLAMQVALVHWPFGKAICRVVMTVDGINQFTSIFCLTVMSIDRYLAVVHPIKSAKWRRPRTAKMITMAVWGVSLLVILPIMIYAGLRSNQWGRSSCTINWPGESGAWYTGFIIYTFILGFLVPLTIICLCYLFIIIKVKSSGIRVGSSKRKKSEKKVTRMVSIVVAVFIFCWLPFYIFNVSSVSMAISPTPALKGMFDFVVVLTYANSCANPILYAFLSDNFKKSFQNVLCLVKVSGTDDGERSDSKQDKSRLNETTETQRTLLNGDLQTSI

Consider `C[C@@H](O)[C@@H]1NC(=O)[C@H](CCCCN)NC(=O)[C@@H](Cc2c[nH]c3ccccc23)NC(=O)[C@H](Cc2ccccc2)NC(=O)[C@@H](NC(=O)[C@H](N)Cc2ccccc2)CSSC[C@@H](C(=O)N[C@H](CO)[C@@H](C)O)NC1=O` [octreotide, D-Phe-c[Cys-Phe-D-Trp-Lys-Thr-Cys]-Thr(ol)], for which the “affinity to human somatostatin receptor subtype 2” value in experiment [1] is listed as “high affinities”.

For the molecule `CC(=O)O[C@H]1C(=O)[C@@]2(C)[C@H]([C@H](OC(=O)c3ccccc3)[C@]3(O)C[C@H](OC(=O)[C@H](O)[C@@H](NC(=O)c4ccccc4)c4ccccc4)C(C)=C1C3(C)C)[C@]1(OC(C)=O)CO[C@@H]1C[C@@H]2O` [paclitaxel, reference compound], the “death of MCF-7 cells” value with MCF-7 cells [2] was “causes death of both MCF-7 cells and CHO cells”. Also, the “death of CHO cells” value in the experiment on CHO cells [3] was “causes death of both MCF-7 cells and CHO cells”.

As to `CC(C)[C@@H]1NC(=O)[C@H](CCCCN)NC(=O)[C@@H](Cc2c[nH]c3ccccc23)NC(=O)[C@H](Cc2ccc(O)cc2)NC(=O)[C@@H](NC(=O)[C@H](N)Cc2ccccc2)CSSC[C@@H](C(=O)N[C@@H](Cc2c[nH]c3ccccc23)C(N)=O)NC1=O` [vapreotide, D-Phe-c[Cys-Tyr-D-Trp-Lys-Val-Cys]-Trp-NH2] (H-[dF]CY[dW]KVCW-NH2; disulfide 2-7), the “affinity to human somatostatin receptor subtype 4” value in experiment [4] is listed as “high affinities”.

Regarding “Fluorescein-Octreotide [labeled octreotide]”, the figures for the “binding (fluorescence labeling) to MCF-7 cells” value in the experiment on MCF-7 cells [5] and in the experiment with MCF-7 cells [5] (setting [9]) were “binds to the MCF-7 cells” and “labeling is confined to the MCF-7 cell surface”, respectively. Also, the “binding to MCF-7 cells in the presence of excessive non-labeled octreotide” value in the experiment with MCF-7 cells [5] (excessive amount (1,000 fold) of nonfluorescent octreotide) was “disappears”. Besides, the “internalization into MCF-7 cytosol” value is listed as “internalized into the MCF-7 cytosol” with MCF-7 cells [6] and “internalization” in the experiment on MCF-7 cells [6] (setting [9]). The results for the “binding (fluorescence labeling) to CHO cells” value with CHO cells [7] and in the experiment on CHO cells [7] (setting [9]) were “not to the CHO cells” and “No labeling can be seen among the CHO cells”, respectively. Also, the entries for the “binding to CHO cells at higher concentration of labeled octreotide” value in the experiment on CHO cells [7] and in the experiment with CHO cells [7] (setting [9]) were “does not bind to the CHO cells” and “No labeling”, respectively.

As for “Paclitaxel-Glutary 1-Octreotide [octreotide conjugated paclitaxel]”, in the experiment on MCF-7 cells [8], the “anti-tumor activity through disrupting microtubule formation, compared with non-conjugated paclitaxel” value is reported as “same anti- tumor activity through disrupting microtubule formation”. Also, the “anti-tumor activity through disrupting microtubule formation, compared with non-conjugated paclitaxel” value in the experiment with MCF-7 cells [8] (listed as octreotide-conjugated taxol) is recorded as “virtually retains the cellular functions of taxol”. For the same molecule, in the experiment with MCF-7 cells [2], the “cell specificity (MCF-7 versus CHO cells)” value is given as “specific to MCF-7 cells” and the “death of MCF-7 cells” value is reported as “induces only the death of the MCF-7 cells”. For the same molecule, the “death of CHO cells” value in the experiment with CHO cells [3] is on record as “not of the CHO cells”.

Source of the values: patent US6552007B2, “Use of somatostatin analogs for the delivery of anti-tumor drugs to tumor cells” (priority 2000, dated 2003).
